In patent US20130035281A1, “PHARMACEUTICAL COMPOSITION, METHODS FOR TREATING AND USES THEREOF” (BOEHRINGER INGELHEIM INTERNATIONAL GMBH, priority 2011, published 2013):

How the values were obtained:
[1] = tested on: Zucker diabetic fatty (ZDF) rats; test: Oral glucose tolerance test in ZDF rats; type: in vivo; conditions: overnight fasted 12-weeks old male ZDF rats; single dose; Cpd. A 3 mg/kg oral, exendin-4 0.01 mg/kg subcutaneous; oral glucose 2 g/kg; blood glucose up to 120 min
Experimental: An oral glucose tolerance test was performed in overnight fasted 12-weeks old male Zucker diabetic fatty (ZDF) rats (ZDF/CRL-Lepr^fa). A pre-dose blood sample was obtained by tail bleed. Blood glucose was measured with a glucometer, and the animals were randomized for blood glucose (n=5/group). Subsequently, the groups received a single oral administration of either vehicle alone (0.5% aqueous hydroxyethylcellulose) or this vehicle containing the glucopyranosyl-substituted benzene derivative. […] The animals were orally dosed with glucose (2 g/kg) 30 min after the subcutaneous injection. Blood glucose was measured in tail blood 15 min, 30 min, 60 min, 90 min, and 120 min thereafter. Glucose excursion was quantified by calculating the reactive glucose AUC. The data are presented as mean±S.E.M. The two-sided unpaired Student's t-test was used for statistical comparison of the groups. A p value<0.05 was considered to show a statistically significant difference.

[2] = metformin on its own, in the diabetic; cited from earlier work

| Structure (SMILES) | reduction of glucose excursion (reactive glucose AUC) [1] | average improvement in the HbA1c value [2] |
| --- | --- | --- |
| OC[C@H]1O[C@@H](c2ccc(Cl)c(Cc3ccc(O[C@H]4CCOC4)cc3)c2)[C@H](O)[C@@H](O)[C@@H]1O [Cpd. A] | 57% | – |
| CN(C)C(=N)N=C(N)N [metformin] | – | 1.0-1.5% |
